Structures are written as SMILES. Activity calls are given as the source filed them.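 The calls were made as follows: active = lipid-stain IC50 at or below a set limit, with nuclear-stain toxicity IC50 at least five times higher; inactive = the rest.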

The test system of test [1] is TAG. As to the kind of experiment: TAG lipid buildup inhibition with viability readout – cell-based, panel, Nile Red and DAPI fluorescence, H9c2, dose response (AID 651630).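 Also: cells exposed to compound overnight before fixation and staining.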 The conditions noted are these: H9c2 cells, Nile Red TAG fluorescence, oleic acid.
The test system of test [2] is DAPI. The test is described as above. As to conditions: H9c2 cells, DAPI nuclear fluorescence (cytotoxicity counter-readout), oleic acid.

`Cc1cccc(-c2ccc3[nH]c4c(c3c2)CCN2C[C@@H]([C@H](C)OC(=O)Nc3ccccc3C)[C@@H](N(C)C(=O)Nc3ccccc3C)C[C@@H]42)c1`: the values for the IC50 in test [1] (mean of runs), in test [1] (run 1) and in test [1] (run 2) were 15.6 µM (inactive), 15.5 µM and 15.6 µM, respectively. In addition, the IC50 cytotoxicity (DAPI nuclear signal decrease) is > 25 µM (inactive) in test [2] (mean of runs), over 25 µM in test [2] (run 1) and over 25 µM in test [2] (run 2).
For the compound `COc1ccc(-c2nn(-c3ccccc3)cc2/C=C/C(=O)OCC(=O)Nc2ccccc2C#N)cc1`, the IC50 was 16.5 µM in test [1] (run 1) and over 25 µM in test [1] (run 2). For the same compound, the IC50 cytotoxicity (DAPI nuclear signal decrease) in test [2] (mean of runs) is > 25 µM (inactive); in test [2] (run 1), over 25 µM; in test [2] (run 2), over 25 µM.
For the compound `O=C(N/N=C/c1ccc(Cl)cc1)c1sccc1OCc1ccc(F)cc1`, the IC50 in test [1] (mean of runs) is > 25 µM (inactive); in test [1] (run 1), over 25 µM; in test [1] (run 2) it was over 25 µM. Also, the IC50 cytotoxicity (DAPI nuclear signal decrease) in test [2] (mean of runs) was > 25 µM (inactive); in test [2] (run 1), over 25 µM; in test [2] (run 2) it was over 25 µM.
As for `Cc1cc(NC(=O)c2ccccc2F)n(-c2nc3ccccc3[nH]2)n1`, the IC50 is 16.8 µM (inactive) in test [1] (mean of runs), 16.8 µM in test [1] (run 1) and 16.9 µM in test [1] (run 2). For the same compound, the IC50 cytotoxicity (DAPI nuclear signal decrease) in test [2] (mean of runs) was > 25 µM (inactive); in test [2] (run 1), over 25 µM; in test [2] (run 2) it was over 25 µM.
On to `CCCC(=O)Nc1nc2ccc(NC(=O)c3c(F)c(F)c(OC)c(F)c3F)cc2s1`, for which the figures for the IC50 in test [1] (mean of runs), in test [1] (run 1) and in test [1] (run 2) were 6.21 µM, 6.68 µM and 5.73 µM, respectively. Moreover, the IC50 cytotoxicity (DAPI nuclear signal decrease) in test [2] (mean of runs) is > 25 µM (inactive); in test [2] (run 1), over 25 µM; in test [2] (run 2), over 25 µM.
As to `CCOC(=O)c1cc(-c2ccncc2)nc2c1c(C)nn2-c1ccccn1`, the IC50 in test [1] (run 1) was 14.1 µM; in test [1] (run 2), over 25 µM. The results for the IC50 cytotoxicity (DAPI nuclear signal decrease) in test [2] (mean of runs), in test [2] (run 1) and in test [2] (run 2) were > 25 µM (inactive), over 25 µM and over 25 µM, respectively.
As to `COc1cc2ccccc2cc1C(=O)N/N=C/c1cccs1`, the IC50 in test [1] (mean of runs) was > 25 µM (inactive); in test [1] (run 1), over 25 µM; in test [1] (run 2), over 25 µM. Further, the IC50 cytotoxicity (DAPI nuclear signal decrease) was > 25 µM (inactive) in test [2] (mean of runs), over 25 µM in test [2] (run 1) and over 25 µM in test [2] (run 2).
As for `CC1(C)CCCN(Cc2c(O)ccc3c(=O)c(-c4nc5ccccc5s4)c(N)oc23)C1`, the IC50 in test [1] (mean of runs), in test [1] (run 1) and in test [1] (run 2) was 10 µM in each case. Moreover, the figures for the IC50 cytotoxicity (DAPI nuclear signal decrease) in test [2] (mean of runs), in test [2] (run 1) and in test [2] (run 2) were > 25 µM (inactive), over 25 µM and over 25 µM, respectively.
Turning to `Cc1ccc(Cl)cc1NC(=S)N/N=C/c1cccc2ccccc12`, the IC50 in test [1] (run 1) was 19.9 µM; in test [1] (run 2) it was over 25 µM. The results for the IC50 cytotoxicity (DAPI nuclear signal decrease) in test [2] (mean of runs), in test [2] (run 1) and in test [2] (run 2) were > 25 µM (inactive), over 25 µM and over 25 µM, respectively.
As to `CCC(C)(C)C1CCC2(CC1)NC(=O)N(CC(=O)NCCc1ccc(OC)c(OC)c1)C2=O` (stereo not drawn), the IC50 in test [1] (mean of runs) was 3.29 µM; in test [1] (run 1), 1.91 µM; in test [1] (run 2), 4.67 µM. The IC50 cytotoxicity (DAPI nuclear signal decrease) in test [2] (run 1) and in test [2] (run 2) was over 25 µM each time.
For `CCN1C(=O)[C@H]2[C@@H](c3ccc(-c4ccccc4)c(OC)c3)N[C@@](CC(C)C)(C(=O)OC)[C@H]2C1=O`, the IC50 in test [1] (mean of runs) was 10.3 µM; in test [1] (run 1), 12.4 µM; in test [1] (run 2), 8.14 µM. The IC50 cytotoxicity (DAPI nuclear signal decrease) was > 25 µM (inactive) in test [2] (mean of runs), over 25 µM in test [2] (run 1) and over 25 µM in test [2] (run 2).
On to `Cc1ccc(NC(=O)c2cc([N+](=O)[O-])ccc2NCc2cccnc2)cc1Cl`, for which the IC50 in test [1] (mean of runs) is 14 µM; in test [1] (run 1), 10.5 µM; in test [1] (run 2), 17.6 µM. Also, the figures for the IC50 cytotoxicity (DAPI nuclear signal decrease) in test [2] (mean of runs), in test [2] (run 1) and in test [2] (run 2) were > 25 µM (inactive), over 25 µM and over 25 µM, respectively.
For the compound `CN(C)c1ncnc2c1ncn2C1OC(CO)C(O)C1O` (stereo not drawn), the figures for the IC50 in test [1] (mean of runs), in test [1] (run 1) and in test [1] (run 2) were > 25 µM (inactive), over 25 µM and over 25 µM, respectively. For the same compound, the IC50 cytotoxicity (DAPI nuclear signal decrease) in test [2] (mean of runs) was 12.8 µM (inactive); in test [2] (run 1), 11 µM; in test [2] (run 2), 14.5 µM.
With `CN(C)c1ccc(NC(=O)Nc2nc(C(N)C3CCCCC3)cs2)cc1` (stereo not drawn), the IC50 in test [1] (mean of runs) was > 25 µM (inactive); in test [1] (run 1) it was over 25 µM; in test [1] (run 2) it was over 25 µM. In addition, the IC50 cytotoxicity (DAPI nuclear signal decrease) in test [2] (mean of runs) is > 25 µM (inactive); in test [2] (run 1), over 25 µM; in test [2] (run 2) it was over 25 µM.
Regarding `Cc1ccc(NC(=O)CSc2nc3ccc(Nc4nc(N5CCOCC5)nc(N5CCOCC5)n4)cc3s2)cc1`, the figures for the IC50 in test [1] (mean of runs), in test [1] (run 1) and in test [1] (run 2) were 3.8 µM, 4.85 µM and 2.76 µM, respectively. Besides, the IC50 cytotoxicity (DAPI nuclear signal decrease) in test [2] (run 1) and in test [2] (run 2) was over 25 µM each time.
As for `COc1cc2c3c(cccc3c1)C(=O)N(CCN1CCCC1)C2=O`, the IC50 in test [1] (mean of runs) was 7.94 µM; in test [1] (run 1), 8.07 µM; in test [1] (run 2) it was 7.8 µM. Moreover, the IC50 cytotoxicity (DAPI nuclear signal decrease) in test [2] (mean of runs) is > 25 µM (inactive); in test [2] (run 1), over 25 µM; in test [2] (run 2), over 25 µM.
`CC(=O)c1cccc(-c2ccc(CN3C(CC(C)C)C(=O)N(Cc4cn(CC5CCCCC5)nn4)CCS3(=O)=O)cc2)c1` (stereo not drawn): the IC50 in test [1] (run 1) was over 25 µM; in test [1] (run 2), 18.1 µM. Also, the IC50 cytotoxicity (DAPI nuclear signal decrease) in test [2] (mean of runs) was > 25 µM (inactive); in test [2] (run 1) it was over 25 µM; in test [2] (run 2), over 25 µM.
Consider `Cc1cc(N/N=C/c2ccc(F)cc2)nc(-n2nc(C)cc2C)n1`, for which the IC50 in test [1] (mean of runs) is > 25 µM (inactive); in test [1] (run 1), over 25 µM; in test [1] (run 2), over 25 µM. Besides, the IC50 cytotoxicity (DAPI nuclear signal decrease) in test [2] (mean of runs) was > 25 µM (inactive); in test [2] (run 1) it was over 25 µM; in test [2] (run 2), over 25 µM.
For `C[C@@H]1CN([C@H](C)CO)C(=O)c2cccc(NC(=O)Nc3ccc(C(F)(F)F)cc3)c2O[C@H]1CN(C)S(=O)(=O)c1cccs1`, the IC50 in test [1] (mean of runs) is 15.9 µM (inactive); in test [1] (run 1), 13.8 µM; in test [1] (run 2), 18 µM. The IC50 cytotoxicity (DAPI nuclear signal decrease) in test [2] (mean of runs) is > 25 µM (inactive); in test [2] (run 1), over 25 µM; in test [2] (run 2), over 25 µM.
As for `O=C1C(NS(=O)(=O)c2cccs2)=C(N2CCN(c3cccc(C(F)(F)F)c3)CC2)C(=O)c2ccccc21`, the IC50 in test [1] (mean of runs) is 5.88 µM; in test [1] (run 1), 7.01 µM; in test [1] (run 2), 4.75 µM. For the same compound, the values for the IC50 cytotoxicity (DAPI nuclear signal decrease) in test [2] (mean of runs), in test [2] (run 1) and in test [2] (run 2) were > 25 µM (inactive), over 25 µM and over 25 µM, respectively.
With `COc1ccc(CNC(=O)C[C@H]2C[C@H](C(=O)N3CCCCC3)[C@@]3(CCc4ccccc4)c4[nH]c5ccc(Cl)cc5c4CCN3C2=O)cc1OC`, the IC50 was 10 µM in test [1] (mean of runs), 9.61 µM in test [1] (run 1) and 10.4 µM in test [1] (run 2). For the same compound, the IC50 cytotoxicity (DAPI nuclear signal decrease) in test [2] (mean of runs) was > 25 µM (inactive); in test [2] (run 1) it was over 25 µM; in test [2] (run 2) it was over 25 µM.
Consider `COc1ccc(C(C(=O)NC(C)(C)C)N(Cc2ccco2)C(=O)CCC(=O)Nc2cc(C)on2)cc1` (stereo not drawn), for which the IC50 in test [1] (mean of runs) was 19 µM (inactive); in test [1] (run 1), 19.9 µM; in test [1] (run 2), 18.1 µM. Further, the IC50 cytotoxicity (DAPI nuclear signal decrease) is > 25 µM (inactive) in test [2] (mean of runs), over 25 µM in test [2] (run 1) and over 25 µM in test [2] (run 2).
Consider `Nc1c(Cl)cc(-c2csc(N3CCCC3c3nc4cc(Cl)c(Cl)cc4n3CCCO)n2)cc1Cl` (stereo not drawn), for which the IC50 in test [1] (mean of runs) was 8.37 µM; in test [1] (run 1), 7.74 µM; in test [1] (run 2), 9 µM. Further, the IC50 cytotoxicity (DAPI nuclear signal decrease) in test [2] (mean of runs) was > 25 µM (inactive); in test [2] (run 1), over 25 µM; in test [2] (run 2) it was over 25 µM.
In the case of `CCc1ccc(/C=N/NC(=O)c2cc(C3CC3)nc3ccc(Br)cc23)s1`, the IC50 is > 25 µM (inactive) in test [1] (mean of runs), over 25 µM in test [1] (run 1) and over 25 µM in test [1] (run 2). Besides, the IC50 cytotoxicity (DAPI nuclear signal decrease) was > 25 µM (inactive) in test [2] (mean of runs), over 25 µM in test [2] (run 1) and over 25 µM in test [2] (run 2).
As for `COc1cc(OC)c2c(-c3ccccc3)cc(=O)oc2c1C(CCN1CCCC(C)C1)c1ccc2c(c1)OCO2` (stereo not drawn), the IC50 in test [1] (run 1) was over 25 µM; in test [1] (run 2), 13.7 µM. Besides, the IC50 cytotoxicity (DAPI nuclear signal decrease) in test [2] (mean of runs) was > 25 µM (inactive); in test [2] (run 1) it was over 25 µM; in test [2] (run 2), over 25 µM.
Consider `COc1ccc(NC(=O)C2(C)Cc3c(-c4cccc(C(N)=O)c4)ccnc3O2)cc1` (stereo not drawn), for which the IC50 is over 25 µM in test [1] (run 1) and 12.1 µM in test [1] (run 2). Also, the IC50 cytotoxicity (DAPI nuclear signal decrease) in test [2] (mean of runs) is > 25 µM (inactive); in test [2] (run 1), over 25 µM; in test [2] (run 2), over 25 µM.

A word on the IC50: it is the concentration that inhibits the measured activity by half.

These data come from PubChem BioAssay AID651630 (Sanford-Burnham Center for Chemical Genomics, 2012).
